How the values were obtained:
[1] = biological target: T1, pEGFR, A431 cells (wildtype EGFR) (Homo sapiens, UniProt P00533); assay: Cellular EGFR phosphorylation assay (LANCE Ultra TR-FRET) in A431 cells; format: cell-based; conditions: 4 hours at 37° C., 40 ng/mL EGF for the final 10 minutes, read-out: A431 pEGFR IC50
T1 construct: pEGFR (Tyr1068) TR-FRET
Method: (§1) Cellular EGFR Phosphorylation Assays
(§2) EGFR phosphorylation assays were conducted in NSCLC cells with EGFR activation mutations. PC-9 cells (purchased from Aldrich-Sigma) carry a Glu746-Ala750 deletion (d746-750) mutation in exon 19 of the EGFR gene and NCI-H1975 cells (purchased from ATCC) carry both L858R activation mutation and T790M gatekeeper mutation in the EGFR gene. A431 cells (purchased from ATCC) with amplification of wildtype EGFR, derived from epidermoid carcinoma, were used to measure the activity against wildtype EGFR. All cells were seeded in 96-well plates. For PC-9 and NCI-H1975 cells, 50 thousand cells were seeded per well. For A431 cells, 30 thousand cells were seeded per well. The next day, cells were exposed to compound for 4 hours at 37° C. and 5% CO2. Compounds were diluted in DMSO and added to cells in a 9-dose, 3-fold dilution, titration curve using TECAN d300e liquid dispenser. For A431 cells, 40 ng/mL of EGF was added to the media for the final 10 minutes of incubation. EGFR phosphorylation was measured using phospho-EGFR (Try1068) LANCE Ultra TR-FRET Detection Kit (TRF4015M) from PerkinElmer according to manufacturer's instructions. In brief, cells were lysed with 40 μL of lysis buffer plus 1× Halt protease and phosphatase inhibitor cocktail (Thermo 78441) and by incubation at room temperature for 1 h on a microplate shaker (350 rpm). 15 μ L of cell lysate was transferred to 384-well white plate and 5 μL of Europium- and ULight-labeled antibodies diluted in 1× detection buffer was added to each well. After 4-6 hours of incubation at room temperature, plates were then read on a TECAN Sparks multimode microplate reader. Data was analyzed using GraphPad Prism 9 (GraphPad Software, San Diego, CA) to obtain IC50 values.

EGFR (D770_N771insNPG) = EGFR (D770_N771insNPG) (Homo sapiens, UniProt P00533, INS770NPG); assay: HotSpot radiometric kinase assay, inhibition of EGFR (D770_N771insNPG) mutant; format: biochemical; conditions: 33P ATP, room temperature, 120 m
Method: (§3) Biochemical Assays for inhibition of wild-type and mutant EGFRs
(§4) Briefly, specific kinase/substrate pairs along with required cofactors were prepared in reaction buffer; 20 mM HEPES pH 7.5, 10 mM […], 1 mM EGTA, 0.02% Brij35, 0.02 mg/ml BSA, 0.1 mM Na3VO4, 2 mM DTT, 1% DMSO. Compounds were delivered into the reaction, followed ~20 minutes later by addition of a mixture of ATP (Sigma, St. Louis MO) and ^33P ATP (Perkin Elmer, Waltham MA) to a final concentration of […]. Reactions were carried out at room temperature for 120 m, followed by spotting of the reactions onto P81 ion exchange filter paper (Whatman Inc., Piscataway, NJ). Unbound phosphate was removed by extensive washing of filters in 0.75% phosphoric acid. […] IC50 values and curve fits were obtained using Prism (GraphPad Software).

[2] = biological target: T2, pEGFR, PC-9 cells (d746-750 EGFR) (Homo sapiens, UniProt P00533, DEL746-750); assay: Cellular EGFR phosphorylation assay (LANCE Ultra TR-FRET) in PC-9 cells; format: cell-based; conditions: 4 hours at 37° C., read-out: PC-9 pEGFR IC50
T2 construct: pEGFR (Tyr1068) TR-FRET
T2 sequence (P00533 with tags, fused parts or gaps DEL746-750): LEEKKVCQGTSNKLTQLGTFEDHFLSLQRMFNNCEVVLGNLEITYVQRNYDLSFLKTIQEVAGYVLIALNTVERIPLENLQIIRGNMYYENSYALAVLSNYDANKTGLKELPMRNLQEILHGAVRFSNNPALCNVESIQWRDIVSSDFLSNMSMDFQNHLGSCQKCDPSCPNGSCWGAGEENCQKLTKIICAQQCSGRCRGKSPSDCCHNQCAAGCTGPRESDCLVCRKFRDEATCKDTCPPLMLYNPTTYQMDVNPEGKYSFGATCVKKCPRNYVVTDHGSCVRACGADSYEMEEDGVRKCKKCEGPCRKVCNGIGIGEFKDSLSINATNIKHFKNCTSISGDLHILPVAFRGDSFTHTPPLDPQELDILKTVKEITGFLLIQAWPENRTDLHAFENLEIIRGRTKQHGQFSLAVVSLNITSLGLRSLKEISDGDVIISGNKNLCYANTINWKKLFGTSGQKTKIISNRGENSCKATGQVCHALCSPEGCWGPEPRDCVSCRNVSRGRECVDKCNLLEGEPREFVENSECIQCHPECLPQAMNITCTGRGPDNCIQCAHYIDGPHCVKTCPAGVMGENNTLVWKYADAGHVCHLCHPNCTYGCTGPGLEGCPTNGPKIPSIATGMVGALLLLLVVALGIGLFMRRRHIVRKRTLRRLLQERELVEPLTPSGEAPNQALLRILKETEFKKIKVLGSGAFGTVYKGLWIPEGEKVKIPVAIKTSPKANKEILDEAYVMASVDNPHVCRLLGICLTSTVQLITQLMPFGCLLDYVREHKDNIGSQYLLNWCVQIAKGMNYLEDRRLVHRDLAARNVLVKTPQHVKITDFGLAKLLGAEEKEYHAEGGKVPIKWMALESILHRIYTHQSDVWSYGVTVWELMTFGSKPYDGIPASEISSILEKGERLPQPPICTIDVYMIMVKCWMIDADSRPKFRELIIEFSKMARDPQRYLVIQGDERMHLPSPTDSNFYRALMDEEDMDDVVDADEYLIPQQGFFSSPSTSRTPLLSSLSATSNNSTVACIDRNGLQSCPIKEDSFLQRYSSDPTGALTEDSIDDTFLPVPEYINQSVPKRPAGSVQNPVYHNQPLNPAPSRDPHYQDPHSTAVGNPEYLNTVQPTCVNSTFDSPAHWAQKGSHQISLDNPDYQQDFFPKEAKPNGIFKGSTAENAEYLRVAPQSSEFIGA
Method: as §1, §2

PC-9 cells = assay: 5-Day CellTiter Glo (CTG) cell proliferation assay, PC-9; format: cell-based; conditions: Homo sapiens; PC-9 cells (d746-750 EGFR), 5-day CTG proliferation, 120 hours; read-out: PC-9 IC50
How it was run: (§5)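 Proliferation of EGFR-driven NSCLC cells was scored as CellTiter-Glo 2.0 luminescence after a 5-day (120 h) incubation with compounds in 9 doses. IC50 values came from the dose-response curves.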

EGFR (L858R/T790M/C797S) = EGFR (L858R/T790M/C797S) (Homo sapiens, UniProt P00533, C797S/L858R/T790M); assay: HotSpot radiometric kinase assay, inhibition of EGFR L858R/T790M/C797S mutant; format: biochemical; conditions: 33P ATP, room temperature, 120 m
EGFR (L858R/T790M/C797S), sequence (P00533 25-1210 T790M/C797S/L858R): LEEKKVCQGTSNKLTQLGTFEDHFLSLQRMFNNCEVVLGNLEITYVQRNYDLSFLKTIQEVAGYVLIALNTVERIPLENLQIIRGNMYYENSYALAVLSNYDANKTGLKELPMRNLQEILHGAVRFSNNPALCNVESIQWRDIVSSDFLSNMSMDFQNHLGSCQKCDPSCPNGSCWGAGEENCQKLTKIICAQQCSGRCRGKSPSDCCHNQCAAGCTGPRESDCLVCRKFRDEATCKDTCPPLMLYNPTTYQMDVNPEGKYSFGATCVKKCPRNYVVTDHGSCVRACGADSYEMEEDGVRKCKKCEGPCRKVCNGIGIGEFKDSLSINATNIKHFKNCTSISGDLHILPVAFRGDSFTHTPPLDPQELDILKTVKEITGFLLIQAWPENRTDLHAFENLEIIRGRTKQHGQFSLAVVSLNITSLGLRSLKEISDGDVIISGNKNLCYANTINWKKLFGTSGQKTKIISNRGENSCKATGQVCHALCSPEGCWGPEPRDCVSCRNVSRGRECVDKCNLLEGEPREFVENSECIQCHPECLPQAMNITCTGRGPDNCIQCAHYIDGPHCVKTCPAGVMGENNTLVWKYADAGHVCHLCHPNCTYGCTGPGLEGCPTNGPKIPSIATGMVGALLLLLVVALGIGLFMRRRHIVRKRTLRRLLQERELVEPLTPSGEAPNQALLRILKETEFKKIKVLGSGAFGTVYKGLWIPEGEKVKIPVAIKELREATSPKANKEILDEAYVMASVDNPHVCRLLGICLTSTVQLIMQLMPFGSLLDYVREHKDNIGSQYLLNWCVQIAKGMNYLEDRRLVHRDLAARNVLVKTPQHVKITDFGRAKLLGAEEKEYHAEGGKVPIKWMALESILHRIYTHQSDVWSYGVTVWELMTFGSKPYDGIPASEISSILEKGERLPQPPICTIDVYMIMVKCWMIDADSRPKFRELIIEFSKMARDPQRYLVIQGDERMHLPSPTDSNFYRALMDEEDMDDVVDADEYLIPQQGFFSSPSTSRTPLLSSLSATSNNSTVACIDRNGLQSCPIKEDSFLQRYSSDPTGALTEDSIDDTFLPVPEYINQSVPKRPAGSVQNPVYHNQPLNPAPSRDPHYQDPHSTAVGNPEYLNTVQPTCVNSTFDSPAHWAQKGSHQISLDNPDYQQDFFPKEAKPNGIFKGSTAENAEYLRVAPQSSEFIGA
Method: as §3, §4

EGFR (D746-750/C797S) = EGFR (D746-750/C797S) (Homo sapiens, UniProt P00533, C797S/DEL746-750); assay: HotSpot radiometric kinase assay, inhibition of EGFR 746-750/C797S mutant; format: biochemical; conditions: 33P ATP, room temperature, 120 m
EGFR (D746-750/C797S), sequence (P00533 with tags, fused parts or gaps DEL746-750/C797S): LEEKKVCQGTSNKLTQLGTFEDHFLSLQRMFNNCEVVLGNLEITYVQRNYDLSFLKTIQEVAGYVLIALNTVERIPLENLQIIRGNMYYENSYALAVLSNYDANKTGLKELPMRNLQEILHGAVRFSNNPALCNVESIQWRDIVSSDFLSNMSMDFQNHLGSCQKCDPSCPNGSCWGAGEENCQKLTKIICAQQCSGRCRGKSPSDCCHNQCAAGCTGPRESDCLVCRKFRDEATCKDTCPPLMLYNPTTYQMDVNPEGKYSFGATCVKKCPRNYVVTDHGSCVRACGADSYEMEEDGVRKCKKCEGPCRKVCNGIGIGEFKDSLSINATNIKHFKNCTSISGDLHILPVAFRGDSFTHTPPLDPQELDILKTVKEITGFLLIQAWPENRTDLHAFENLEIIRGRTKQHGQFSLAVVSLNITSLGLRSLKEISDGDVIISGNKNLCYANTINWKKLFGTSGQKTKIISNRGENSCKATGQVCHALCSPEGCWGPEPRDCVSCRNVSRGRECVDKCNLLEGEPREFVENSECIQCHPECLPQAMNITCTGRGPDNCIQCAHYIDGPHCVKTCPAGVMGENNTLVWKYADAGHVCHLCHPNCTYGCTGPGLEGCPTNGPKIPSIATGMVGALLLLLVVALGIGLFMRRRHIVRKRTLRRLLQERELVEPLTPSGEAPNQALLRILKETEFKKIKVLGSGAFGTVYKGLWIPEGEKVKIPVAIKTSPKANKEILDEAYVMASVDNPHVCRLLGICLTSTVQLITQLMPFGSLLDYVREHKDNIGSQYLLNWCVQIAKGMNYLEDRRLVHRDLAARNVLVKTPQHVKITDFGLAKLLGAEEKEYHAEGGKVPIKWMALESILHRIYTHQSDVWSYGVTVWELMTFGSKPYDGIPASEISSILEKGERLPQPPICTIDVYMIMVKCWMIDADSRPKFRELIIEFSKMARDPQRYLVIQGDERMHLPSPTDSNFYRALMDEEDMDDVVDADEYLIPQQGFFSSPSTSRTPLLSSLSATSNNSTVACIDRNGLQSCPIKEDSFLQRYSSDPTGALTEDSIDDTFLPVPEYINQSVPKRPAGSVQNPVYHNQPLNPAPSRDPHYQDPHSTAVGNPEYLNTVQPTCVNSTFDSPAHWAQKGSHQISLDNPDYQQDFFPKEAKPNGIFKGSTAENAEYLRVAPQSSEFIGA
Method: as §3, §4

HCC827 cells = assay: 5-Day CellTiter Glo (CTG) cell proliferation assay, HCC827; format: cell-based; conditions: Homo sapiens; HCC827 cells (d746-750 EGFR), 5-day CTG proliferation, 120 hours; read-out: HCC827 IC50
How it was run: as §5

[3] = system: BaF3 cells with engineered EGFR L858R/C797S; assay: 3-Day CellTiter Glo (CTG) cell proliferation assay, BaF3 EGFR L858R/C797S; format: cell-based; conditions: Mus musculus, 3-day CTG proliferation, 72 hours
Method: (§6) 3-DAY CellTiter Glo (CTG) Cell Proliferation Assays (BaF3 Cell Lines)
(§7) Cell proliferation assays were carried out in BaF3 cells engineered with EGFR mutations. BaF3 cells with engineered EGFR L858R/T790M/C797S, EGFR L858R/C797S, or EGFR d746-750/T790M transgene, one thousand cells/50 μL per well were seeded in white 384-well plate, followed by treatment with indicated compounds in a 9-dose dilution series using TECAN d300e liquid dispenser. Cells were incubated with compounds for 72 hours at 37° C. and 5% CO2. Cell proliferation was measured using CellTiter-Gbo 2.0 luciferase-based ATP detection assay (Promega, Madison, WI) at 18 μL per well following the manufacturer's protocol. Plates were then read on a TECAN Sparks multimode microplate reader. Data was analyzed using GraphPad Prism 9 (GraphiPad Software, San Diego, CA) to obtain IC50 values.

EGFR (D746-750) = EGFR (D746-750) (Homo sapiens, UniProt P00533, DEL746-750); assay: HotSpot radiometric kinase assay, inhibition of EGFR 746-750 mutant; format: biochemical; conditions: 33P ATP, room temperature, 120 m
Method: as §3, §4

[4] = system: BaF3 cells with engineered EGFR L858R/T790M/C797S; assay: 3-Day CellTiter Glo (CTG) cell proliferation assay, BaF3 EGFR L858R/T790M/C797S; format: cell-based; conditions: Mus musculus, 3-day CTG proliferation, 72 hours
Method: as §6, §7

[5] = biological target: T3, pEGFR, NCI-H1975 cells (L858R/T790M EGFR) (Homo sapiens, UniProt P00533, L858R/T790M); assay: Cellular EGFR phosphorylation assay (LANCE Ultra TR-FRET) in NCI-H1975 cells; format: cell-based; conditions: 4 hours at 37° C., read-out: H1975 pEGFR IC50
T3 construct: pEGFR (Tyr1068) TR-FRET
Method: as §1, §2

NCI-H1975 cells = assay: 5-Day CellTiter Glo (CTG) cell proliferation assay, NCI-H1975; format: cell-based; conditions: Homo sapiens; NCI-H1975 cells (L858R/T790M EGFR), 5-day CTG proliferation, 120 hours; read-out: H1975 IC50
How it was run: as §5

[6] = system: BaF3 cells with engineered EGFR d746-750/T790M; assay: 3-Day CellTiter Glo (CTG) cell proliferation assay, BaF3 EGFR d746-750/T790M; format: cell-based; conditions: Mus musculus; BaF3 EGFR d746-750/T790M cells, 3-day CTG proliferation, 72 hours
Method: as §6, §7

T1 sequence (P00533 25-1210): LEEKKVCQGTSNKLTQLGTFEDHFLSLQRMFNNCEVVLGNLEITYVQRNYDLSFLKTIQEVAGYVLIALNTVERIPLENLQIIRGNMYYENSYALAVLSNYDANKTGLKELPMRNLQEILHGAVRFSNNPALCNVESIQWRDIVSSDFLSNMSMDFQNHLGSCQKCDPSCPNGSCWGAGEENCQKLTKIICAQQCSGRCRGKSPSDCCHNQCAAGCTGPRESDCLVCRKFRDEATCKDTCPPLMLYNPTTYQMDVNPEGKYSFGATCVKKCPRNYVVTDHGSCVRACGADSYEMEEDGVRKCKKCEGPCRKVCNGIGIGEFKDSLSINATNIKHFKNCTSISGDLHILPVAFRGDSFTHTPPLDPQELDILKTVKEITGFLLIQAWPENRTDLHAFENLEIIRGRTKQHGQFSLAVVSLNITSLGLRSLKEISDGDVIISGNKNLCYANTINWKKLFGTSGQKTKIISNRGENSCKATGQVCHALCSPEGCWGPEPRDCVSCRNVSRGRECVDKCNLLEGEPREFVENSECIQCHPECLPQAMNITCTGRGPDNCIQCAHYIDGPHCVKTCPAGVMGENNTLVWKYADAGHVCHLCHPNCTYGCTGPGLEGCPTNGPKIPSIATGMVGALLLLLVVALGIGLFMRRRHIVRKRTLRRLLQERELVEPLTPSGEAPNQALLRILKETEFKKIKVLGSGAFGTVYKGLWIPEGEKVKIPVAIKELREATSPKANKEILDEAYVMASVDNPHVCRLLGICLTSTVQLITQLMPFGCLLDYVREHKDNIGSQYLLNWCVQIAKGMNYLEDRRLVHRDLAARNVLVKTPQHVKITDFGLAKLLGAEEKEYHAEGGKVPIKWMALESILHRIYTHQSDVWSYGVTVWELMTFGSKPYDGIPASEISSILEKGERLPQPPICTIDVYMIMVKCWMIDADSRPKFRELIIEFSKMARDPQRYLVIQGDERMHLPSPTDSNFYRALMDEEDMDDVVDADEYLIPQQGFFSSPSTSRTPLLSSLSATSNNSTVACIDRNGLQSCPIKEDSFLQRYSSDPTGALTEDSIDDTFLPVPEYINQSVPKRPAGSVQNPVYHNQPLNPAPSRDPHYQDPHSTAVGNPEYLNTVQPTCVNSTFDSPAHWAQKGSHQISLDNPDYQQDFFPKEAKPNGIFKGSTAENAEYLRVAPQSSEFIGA

IC50 [1] | IC50 (EGFR (D770_N771insNPG)) | IC50 [2] | IC50 (PC-9 cells) | IC50 (EGFR (L858R/T790M/C797S)) | IC50 (EGFR (D746-750/C797S)) | IC50 (HCC827 cells) | IC50 [3] | IC50 (EGFR (D746-750)) | IC50 [4] | IC50 [5] | IC50 (NCI-H1975 cells) | IC50 [6] | SMILES
119 nM | 2.23 nM | 65.1 nM | 226 nM | 0.29 nM | 0.78 nM | 11.6 nM | 3.72 nM | 0.27 nM | 25.9 nM | 41.6 nM | 358 nM | – | Cc1nn(C)c2c1-c1cc3c(n[nH]c3cn1)/C=C/c1c(OCC#N)nn(CCO)c1CN(C)[C@@H](C)CO2 [Ex. 31]
15.8 nM | 0.99 nM | 1.11 nM | 1.6 nM | 1.58 nM | 1.61 nM | 0.63 nM | – | 0.61 nM | – | 1.56 nM | 5.36 nM | – | CCOc1nn([C@@H](C)CO)c2c1/C=C/c1n[nH]c3cnc(cc13)-c1c(C)nn(C)c1OC[C@H]1CCCN1C2 [Ex. 65, (2S)-2-[(8aR,19E)-1-ethoxy-11,13-dimethyl-7,8,8a,9,11,17-hexahydro-6H-14,16-(azenometheno)tripyrazolo[3,4-f:3′,4′-j:4″,3″-n]pyrrolo[2,1-c][1,4]oxazacyclopentadecin-3(4H)-yl]propan-1-ol]
160 nM | 15.3 nM | 75.4 nM | 92 nM | 1.93 nM | 3.68 nM | 41.9 nM | – | 1.87 nM | – | 262 nM | 308 nM | – | CCOc1nn(CCO)c2c1/C=C/c1n[nH]c3cnc(cc13)-c1c(c(C)nn1C)OCCN(C)C2 [Ex. 69, 2-[(17E)-16-ethoxy-6,8,12-trimethyl-2,6,10,11,12,13-hexahydro-14H-5,3-(azenometheno)tripyrazolo[3,4-f:3′,4′-j:3″,4″-n][1,4]oxazacyclopentadecin-14-yl]ethan-1-ol]
29.6 nM | 0.42 nM | 2.74 nM | 5.63 nM | 0.82 nM | 1.2 nM | 1.02 nM | – | 0.41 nM | – | 2.79 nM | 26.6 nM | – | Cc1nn(C)c2c1-c1cc3c(n[nH]c3cn1)/C=C/c1c(OCC#N)nn([C@@H](C)CO)c1CN1CCC[C@@H]1CO2 [Ex. 64, {[(8aR,19E)-3-[(2S)-1-hydroxypropan-2-yl]-11,13-dimethyl-3,4,7,8,8a,9,11,17-octahydro-6H-14,16-(azenometheno)tripyrazolo[3,4-f:3′,4′-j:4″,3″-n]pyrrolo[2,1-c][1,4]oxazacyclopentadecin-1-yl]oxy}acetonitrile]
21 nM | 0.7 nM | 1.68 nM | 3.55 nM | 0.91 nM | 1.05 nM | 0.66 nM | – | 0.43 nM | – | 2.05 nM | 74.7 nM | – | CCc1nn([C@@H](C)CO)c2c1/C=C/c1n[nH]c3cnc(cc13)-c1c(C)nn(C)c1O[C@@H](C)CN(C)C2 [Ex. 61, (2S)-2-[(10S,17E)-16-ethyl-6,8,10,12-tetramethyl-2,8,10,11,12,13-hexahydro-14H-5,3-(azenometheno)tripyrazolo[3,4-f:3′,4′-j:4″,3″-n][1,4]oxazacyclopentadecin-14-yl]propan-1-ol]
21.5 nM | 0.72 nM | 1.11 nM | 2.44 nM | 1.01 nM | 1.38 nM | 0.75 nM | – | 0.55 nM | – | 2.34 nM | 14.7 nM | – | CCN1Cc2c(c(OCC#N)nn2[C@@H](C)CO)/C=C/c2n[nH]c3cnc(cc23)-c2c(C)nn(C)c2O[C@H](C)C1 [Ex. 58, {[(10R,17E)-12-ethyl-14-[(2S)-1-hydroxypropan-2-yl]-6,8,10-trimethyl-2,10,11,12,13,14-hexahydro-8H-5,3-(azenometheno)tripyrazolo[3,4-f:3′,4′-j:4″,3″-n][1,4]oxazacyclopentadecin-16-yl]oxy}acetonitrile]
– | – | – | – | – | – | – | 29.5 nM | – | 97.7 nM | – | – | 396 nM | CCOc1nn([C@@H](C)CO)c2c1/C=C/c1n[nH]c3cnc(cc13)-c1c(C)nn(C)c1O[C@@H](C)CN(C(C)=O)C2 [Ex. 112, 1-[(10S,17E)-16-ethoxy-14-[(2S)-1-hydroxypropan-2-yl]-6,8,10-trimethyl-2,8,10,11,13,14-hexahydro-12H-5,3-(azenometheno)tripyrazolo[3,4-f:3′,4′-j:4″,3″-n][1,4]oxazacyclopentadecin-12-yl]ethan-1-one]
29 nM | 0.78 nM | 2.39 nM | 5.05 nM | 0.86 nM | 1.72 nM | 1.77 nM | – | 0.54 nM | – | 2.49 nM | 57.5 nM | – | CCc1nn(CCO)c2c1/C=C/c1n[nH]c3cnc(cc13)-c1c(C)nn(C)c1O[C@@H](C)CN(C)C2 [Ex. 60]
442 nM | 3.07 nM | 789 nM | 115 nM | 1.36 nM | 1.44 nM | 6.03 nM | 2.6 nM | 0.59 nM | 2.81 nM | 17.7 nM | 74.9 nM | – | CC(C)Oc1nn(CCO)c2c1/C=C/c1n[nH]c3cnc(cc13)-c1cnn(C)c1OC[C@H](C)N(C(C)C)C2 [Ex. 4, 2-[(11S,17E)-8,11-dimethyl-12-(propan-2-yl)-16-[(propan-2-yl)oxy]-2,8,10,11,12,13-hexahydro-14H-5,3-(azenometheno)tripyrazolo[3,4-f:3′,4′-j:4″,3″-n][1,4]oxazacyclopentadecin-14-yl]ethan-1-ol]

Reference: US20260317344A1, “EGFR INHIBITORS FOR TREATING DISEASE” (BLOSSOMHILL THERAPEUTICS, INC., priority 2023, published 2026)
